Measurements: PMC10041525, “New Dual Inhibitors of Bacterial Topoisomerases with Broad-Spectrum Antibacterial Activity and In Vivo Efficacy against Vancomycin-Intermediate Staphylococcus aureus” (Journal of Medicinal Chemistry, 2023)
Values after ≈ are worked out from the molar mass of the structure shown. Values joined by “and” are separate entries in the source; they are usually repeats but may differ in a detail not shown here. Identical values can stand only once. Like-named read-outs stand apart in the source and are kept apart here.

Assays:
physchem = type: physicochemical
Procedure: For the PBS, 2.38 g of disodium hydrogen phosphate dodecahydrate, 0.19 g of potassium dihydrogen phosphate, and 8.0 g of sodium chloride were added to distilled water (900 mL), and the solution was mixed overnight. […] Samples were prepared by weighing the exact mass of solid compounds (about 1 mg), and then, the appropriate volume of PBS was added to reach the final concentration of ∼1 mg/mL. […] The supernatant was diluted 3× with a 1:1 mixture of 0.1% TFA in water and acetonitrile and analyzed by HPLC. For the 7-point calibration curves, concentrated stock solutions of the compounds were prepared at concentrations of 10 and 0.5 mM in DMSO, which were diluted with a 1:1 mixture of 0.1% TFA in water and acetonitrile to the desired final concentrations and analyzed by HPLC. Results are given in μM as an average value of two independent experiments. For details on calibration curves, concentrations, analytical method, and HPLC method, see the Supporting Information.
Thermodynamic solubility assay
To determine thermodynamic solubility of compounds in PBS, calibration curves for the assayed compounds were prepared using seven concentrations. First, DMSO stock solutions of compounds at 10 mM and 0.5 mM concentration were prepared and then diluted (0.1% TFA in […]
Quality control (QC) samples were diluted from stock solutions with a 1:1 mixture of 0.1% TFA in water and acetonitrile to final concentrations of 60 µM, 20 µM, and 2 µM (6 µM, 2 µM, and 0.2 µM for 7f or 0.6 µM, 0.2 µM, and 0.02 µM for 7g).
Analytical reversed-phase UHPLC analyses were performed on Thermo Scientific Dionex UltiMate 3000 modular system (Thermo Fisher Scientific Inc., MA, USA). Waters Acquity UPLC® HSS C18 SB column (2.1 × 50 mm, 1.8 μm; Waters, Milford, MA, USA) was used at T […]
Mobile phase consisted of 0.1% trifluoroacetic acid in ultrapure water (solvent A) and acetonitrile […]
The obtained data was processed in Chromeleon CDS software (Thermo Fisher Scientific Inc., […]
Analytical method was tested for accuracy, precision and linear rang. Accuracy was […]
(or 2 or 0.2) µM and 60 (or 6 or 0.6) µM) to their true values and expressed in (%). Values were […]
Method repeatability was determined by calculating the RSD from the separately prepared and analysed quality control samples (n = 3). […] Linearity of the […]
method (1 (or 0.1 or 0.01) µM to 100 (or 10 or 1) µM) was evaluated from the 7-point calibration […]
Solubility was determined in two independent experiments and results were calculated in […]

in vitro = in vitro ADME, mouse; conditions: male; for recovery at 4 h, 5 μM: plasma protein binding assay
Procedure: The PPB studies were performed by Selvita d.o.o. (Zagreb, Croatia) in mouse plasma (CD-1 male, pooled, commercially obtained from BioIVT) via equilibrium dialysis. Compounds were assayed at 5 μM (0.5% DMSO) in two replicates, and incubation time was 4 h at 37 °C. Samples were taken at 0 min and 4 h. Aliquots from both buffer and plasma compartment matrix were matched and mixed with 6 volumes of STOP solution (acetonitrile/methanol (2:1) + internal standard – diclofenac) and analyzed by LC–MS/MS. Assay controls were caffeine (low), verapamil (moderate binding), and nicardipine (very high binding), and protein contamination was checked.

[1] = tested on: 3 sensitive and 7 MDR A. baumannii clinical isolates; assay: MIC, Hungarian clinical isolates and controls (384-well); type: cell-based
[2] = pH 7.4, thermodynamic solubility (pH = 7.4)
[3] = phosphate-buffered saline (PBS), pH 7.4, PBS pH 7.4, read-out: thermodynamic solubility, Experiment 1
[4] = phosphate-buffered saline (PBS), pH 7.4, PBS pH 7.4, read-out: thermodynamic solubility, Experiment 2
[5] = phosphate-buffered saline (PBS), pH 7.4, thermodynamic solubility (pH = 7.4), PBS, 37 °C, 24 h, mean of two
[6] = CD-1, mouse, plasma (pooled), mouse plasma, 5 µM, 4 h, read-out: fu, fraction unbound

Row | SMILES | recovery at 4 h, 5 μM (in vitro; CD-1, mouse) | solubility thermodynamic at 24 h (physchem; [3]) | solubility thermodynamic at 24 h (physchem; [4]) | solubility thermodynamic at 24 h (physchem; [5]) | solubility thermodynamic at 48 h (physchem; [5]) | fraction unbound at 4 h, 5 μM (in vitro; [6]) | other results
1 | Cc1[nH]c(C(=O)Nc2nc3c(N4CCOCC4)cc(C(=O)O)cc3s2)c(Cl)c1Cl [7a, 2-(3,4-Dichloro-5-methyl-1H-pyrrole-2-carboxamido)-4-morpholinobenzo[d]thiazole-6-carboxylic Acid] | 81.5% |  |  |  |  |  | solubility thermodynamic (physchem; pH 7.4, PBS pH 7.4, read-out: thermodynamic solubility, Experiment 1): 100 µM (≈ 45.5 µg/mL); solubility thermodynamic (physchem; pH 7.4, PBS pH 7.4, read-out: thermodynamic solubility, Experiment 2): 96.6 µM (≈ 44 µg/mL); solubility thermodynamic (physchem; [2]): 98.3 µM (≈ 44.8 µg/mL); solubility thermodynamic at 48 h (physchem; [2]): 98 µM (≈ 44.6 µg/mL); fraction unbound at 4 h, 5 μM (in vitro; CD-1, mouse plasma, 5 µM, 4 h, read-out: fu, fraction unbound): 0.018; Cumulative % at MIC [1]: 80% and 100%
2 | Cc1[nH]c(C(=O)Nc2nc3c(N4CCOCC4C)cc(C(=O)O)cc3s2)c(Cl)c1Cl (stereo not drawn) [7b, 2-(3,4-Dichloro-5-methyl-1H-pyrrole-2-carboxamido)-4-(3-methylmorpholino)benzo[d]thiazole-6-carboxylic Acid] | 84.5% | 59.6 µM (≈ 28 µg/mL) | 76.6 µM (≈ 36 µg/mL) | 68.1 µM (≈ 32 µg/mL) | 68 µM (≈ 31.9 µg/mL) | 0.013 | 
3 | Cc1[nH]c(C(=O)Nc2nc3c(N4CCOC[C@H]4C)cc(C(=O)O)cc3s2)c(Cl)c1Cl [7c, (R)-2-(3,4-Dichloro-5-methyl-1H-pyrrole-2-carboxamido)-4-(3-methylmorpholino)benzo[d]thiazole-6-carboxylic Acid] | 93% | 8.67 µM (≈ 4.07 µg/mL) | 11.6 µM (≈ 5.44 µg/mL) | 10.1 µM (≈ 4.74 µg/mL) |  | 0.016 | thermodynamic solubility (pH = 7.4) (physchem; PBS, 37 °C, 24 h, mean of two): 10.14 µM
4 | Cc1[nH]c(C(=O)Nc2nc3c(N4CCOC[C@@H]4C)cc(C(=O)O)cc3s2)c(Cl)c1Cl [7d, (S)-2-(3,4-Dichloro-5-methyl-1H-pyrrole-2-carboxamido)-4-(3-methylmorpholino)benzo[d]thiazole-6-carboxylic Acid] | 89.5% | 5.6 µM (≈ 2.63 µg/mL) | 6.07 µM (≈ 2.85 µg/mL) | 5.8 µM (≈ 2.72 µg/mL) |  | 0.011 | thermodynamic solubility (pH = 7.4) (physchem; PBS, 37 °C, 24 h, mean of two): 5.84 µM
5 | Cc1[nH]c(C(=O)Nc2nc3c(N4C[C@H]5CC[C@@H](C4)O5)cc(C(=O)O)cc3s2)c(Cl)c1Cl [7g, 4-((1R,5S)-8-Oxa-3-azabicyclo[3.2.1]octan-3-yl)-2-(3,4-dichloro-5-methyl-1H-pyrrole-2-carboxamido)benzo[d]thiazole-6-carboxylic Acid] | 93.5% | 0.33 µM (≈ 0.159 µg/mL) | 0.19 µM (≈ 0.0915 µg/mL) |  | 0.26 µM (≈ 0.125 µg/mL) | 0.004 | 
6 | Cc1[nH]c(C(=O)Nc2nc3c(N4[C@@H]5CC[C@H]4COC5)cc(C(=O)O)cc3s2)c(Cl)c1Cl [7h, 4-((1R,5S)-3-Oxa-8-azabicyclo[3.2.1]octan-8-yl)-2-(3,4-dichloro-5-methyl-1H-pyrrole-2-carboxamido)benzo[d]thiazole-6-carboxylic Acid] | 89% |  |  |  |  |  | solubility thermodynamic at 24 h (physchem; [2]): 3.8 µM (≈ 1.83 µg/mL); solubility thermodynamic at 24 h (physchem; pH 7.4, thermodynamic solubility, Experiment 1): 3.83 µM (≈ 1.84 µg/mL); solubility thermodynamic at 24 h (physchem; pH 7.4, thermodynamic solubility, Experiment 2): 3.8 µM (≈ 1.83 µg/mL); fraction unbound at 4 h, 5 μM (in vitro; CD-1, mouse, plasma, fu, fraction unbound): 0.009; Cumulative % at MIC [1]: 100%
7 | Cc1[nH]c(C(=O)Nc2nc3c(N4CCOC(C(F)(F)F)C4)cc(C(=O)O)cc3s2)c(Cl)c1Cl (stereo not drawn) [7i, 2-(3,4-Dichloro-5-methyl-1H-pyrrole-2-carboxamido)-4-(2-(trifluoromethyl)morpholino)benzo[d]thiazole-6-carboxylic Acid] | 110% | 10.7 µM (≈ 5.57 µg/mL) |  | 10.7 µM (≈ 5.6 µg/mL) | 11 µM (≈ 5.76 µg/mL) | < 0.001 | 
8 | COc1c(N2C[C@@H]3CCCN[C@@H]3C2)c(F)cc2c(=O)c(C(=O)O)cn(C3CC3)c12 [Moxifloxacin, moxifloxacin] |  |  |  |  |  |  | Cumulative % at MIC ([1]; n=10, MIC 0.0625 µg/mL): 20%; Cumulative % at MIC ([1]; n=10, MIC 0.5 µg/mL): 30%; Cumulative % at MIC ([1]; n=10, MIC 32 µg/mL): 70%; Cumulative % at MIC ([1]; n=10, MIC 64 µg/mL): 100%
